Laboratory results: PubChem BioAssay (NCI)
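The compound was tested at five concentrations on cells cultured in 96-well plates, with a 48-hour exposure period. TGI is the concentration that stops growth completely.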

Assays:
Assay in all cases: growth of human tumour cells (NCI), 48 h
[1] = tested on: MCF7 breast
[2] = tested on: CCRF-CEM leukemia
[3] = tested on: PC-3 prostate
[4] = tested on: SW-620 colon
[5] = tested on: UACC-257 melanoma
[6] = tested on: UACC-62 melanoma
[7] = tested on: OVCAR-5 ovarian
[8] = tested on: HOP-92 NSCLC
[9] = tested on: SK-OV-3 ovarian
[10] = tested on: M14 melanoma
[11] = tested on: A549 NSCLC
[12] = tested on: MALME-3M melanoma
[13] = tested on: SK-MEL-28 melanoma
[14] = tested on: KM12 colon
[15] = tested on: LOX IMVI melanoma
[16] = tested on: HCT-15 colon
[17] = tested on: RXF 393 renal
[18] = tested on: 786-0 renal
[19] = tested on: SK-MEL-2 melanoma

SMILES	TGI [1]	TGI [2]	TGI [3]	TGI [4]	TGI [5]	TGI [6]	TGI [7]	TGI [8]	TGI [9]	TGI [10]	TGI [11]	TGI [12]	TGI [13]	TGI [14]	TGI [15]	TGI [16]	TGI [17]	TGI [18]	TGI [19]
O=C(Cn1nc(Br)c(Br)c1Br)c1ccccc1	83.6 µM	23 µM	> 100 µM	> 100 µM	63.5 µM	56.9 µM	> 100 µM	66.8 µM	95.2 µM	92.1 µM	89.7 µM	72.4 µM	> 100 µM	> 100 µM	32.2 µM	> 100 µM	36.4 µM	77.4 µM	56.7 µM
CC(C)OP(=O)(CN(C)/C(F)=N\C(F)(F)F)OC(C)C	> 100 µM	> 100 µM	> 100 µM	> 100 µM	> 100 µM	> 100 µM	> 100 µM	> 100 µM	> 100 µM	> 100 µM	> 100 µM	> 100 µM	> 100 µM	> 100 µM	> 100 µM	> 100 µM	> 100 µM	> 100 µM	> 100 µM
CC(C)CCC1(O)O[C@H]2C[C@H]3[C@@H]4CCC5CC(=O)C=C[C@]5(C)[C@H]4CC[C@]3(C)[C@H]2[C@@H]1C (some centres not stated)	20.3 µM	10.3 µM	17.4 µM	26.4 µM	28.3 µM	28 µM	26.2 µM	16 µM	32.9 µM	29.8 µM	28.2 µM	29.5 µM	25 µM	26.5 µM	26.3 µM	23.4 µM	24.2 µM	25.4 µM	29.6 µM
CCCN1C(=O)CCC2=C1CCc1c2ccc(Cl)c1Cl	> 100 µM	> 100 µM	> 100 µM	> 100 µM	> 100 µM	5.44 µM	82 µM	56.6 µM	69.1 µM	> 100 µM	> 100 µM	> 100 µM	> 100 µM	> 100 µM	> 100 µM	> 100 µM	50.5 µM	> 100 µM	41.6 µM
Cc1nc2c(o1)C(=O)c1ccccc1/C2=N/c1ccccn1	33.9 µM	65.7 µM	> 100 µM	31.6 µM	26.9 µM	34.9 µM	32.4 µM	36.9 µM	> 100 µM	33.6 µM	> 100 µM	25 µM	32.8 µM	42.2 µM	39.9 µM	28.4 µM	> 100 µM	58.7 µM	43.6 µM
OCCN(CCO)c1ccc2c(C(F)(F)F)cc(C(F)(F)F)nc2n1	> 100 µM	> 100 µM	> 100 µM	> 100 µM	> 100 µM	> 100 µM	> 100 µM	> 100 µM	> 100 µM	> 100 µM	> 100 µM	> 100 µM	> 100 µM	> 100 µM	> 100 µM	> 100 µM	> 100 µM	> 100 µM	> 100 µM
NC1C/C(=N\O)c2c(I)sc(I)c21 (configuration not stated)	36 µM	> 100 µM	31.6 µM	29.4 µM	31.8 µM	37.1 µM	31.4 µM	34.5 µM	30.2 µM	30.9 µM	46.4 µM	30.1 µM	32.5 µM	27.7 µM	15.6 µM	30.6 µM	35.8 µM	> 50.9 µM	35.2 µM
CC(=O)Nc1ccc(CNc2cc(=O)[nH]c(=O)[nH]2)cc1	> 100 µM	> 100 µM	> 100 µM	> 100 µM	> 100 µM	> 100 µM	> 100 µM	> 100 µM	> 100 µM	> 100 µM	> 100 µM	> 100 µM	> 100 µM	> 100 µM	> 100 µM	> 100 µM	> 100 µM	> 100 µM	> 100 µM
CC1(c2ccc(Cl)cc2)CC(c2ccc(Cl)cc2)=C(C#N)C(=C(C#N)C#N)N1 (configuration not stated)	49.8 µM	> 100 µM	31.9 µM	> 100 µM	37.1 µM	33.5 µM	61.9 µM	11 µM	31.2 µM	36.6 µM	53.3 µM	32.3 µM	> 100 µM	40.3 µM	33.6 µM	32.5 µM	32.1 µM	24.7 µM	63.4 µM
C1COC(NC(C2CC2)C2CC2)=N1	> 100 µM	> 100 µM	> 100 µM	> 100 µM	> 100 µM	> 100 µM	> 100 µM	> 100 µM	> 100 µM	> 100 µM	> 100 µM	> 100 µM	> 100 µM	> 100 µM	> 100 µM	> 100 µM	> 100 µM	> 100 µM	> 100 µM
CC(=O)Oc1ccc2c(c1)c1c(=O)oc(N(C)C)nc1n2Cc1ccccc1	> 100 µM	> 100 µM	> 100 µM	> 100 µM	> 100 µM	> 100 µM	> 100 µM	> 100 µM	> 100 µM	> 100 µM	> 100 µM	> 100 µM	> 100 µM	> 100 µM	> 100 µM	> 100 µM	> 100 µM	> 100 µM	> 100 µM
CN(C)CCNc1ccc([N+](=O)[O-])c2nc3ccccc3c(N)c12	> 10 µM	> 10 µM	2.87 µM	3.74 µM	> 10 µM	3.54 µM	> 10 µM	7.71 µM	1.33 µM	1.94 µM	4.23 µM	3.12 µM	> 10 µM	1.75 µM	2.11 µM	4.01 µM	4.32 µM	> 10 µM	3.53 µM
O=C(Oc1ccccc1)c1cc2cc(CCl)ccc2oc1=O	> 100 µM	> 100 µM	29.2 µM	> 100 µM	27.5 µM	27.5 µM	> 100 µM	28.7 µM	83.2 µM	67.1 µM	> 100 µM	8.11 µM	> 100 µM	> 100 µM	> 100 µM	> 100 µM	27.9 µM	64.4 µM	15.3 µM
O=C1c2cc3ccccc3cc2C2(c3ccc(Cl)cc3)N[C@H]3CCCC[C@@H]3N12 (some centres not stated)	84.9 µM	> 100 µM	42.6 µM	59.3 µM	48 µM	35.2 µM	60.2 µM	98.5 µM	31.9 µM	8.65 µM	36.3 µM	36.8 µM	28.1 µM	48.2 µM	55.8 µM	> 100 µM	24.2 µM	23.3 µM	35.4 µM
Cc1nn(C(=O)c2ccc(Cl)cc2)c2c1C(c1ccc([N+](=O)[O-])cc1)SC(N)=N2 (configuration not stated)	> 10 µM	> 10 µM	> 10 µM	> 10 µM	> 10 µM	> 10 µM	> 10 µM	> 10 µM	> 10 µM	> 10 µM	> 10 µM	> 10 µM	> 10 µM	> 10 µM	> 10 µM	> 10 µM	> 10 µM	> 10 µM	> 10 µM
CC(C)C(C/C=C1/CC(CO)(COC(=O)CC(C(C)C)C(C)C)OC1=O)C(C)C (configuration not stated)	28.4 µM	29.9 µM	20.2 µM	18.1 µM	30.3 µM	30.1 µM	22.1 µM	18.7 µM	30.5 µM	26.8 µM	14.6 µM	23.1 µM	27.7 µM	21.6 µM	20.8 µM	30.3 µM	26 µM	23.3 µM	30.1 µM
CCc1n[nH]c(=O)n1N1C(=O)C2CC=CCC2C1=O (configuration not stated)	> 100 µM	> 100 µM	> 100 µM	> 100 µM	> 100 µM	> 100 µM	> 100 µM	> 100 µM	> 100 µM	> 100 µM	> 100 µM	> 100 µM	–	> 100 µM	> 100 µM	> 100 µM	> 100 µM	> 100 µM	> 100 µM
Nc1nc(Cl)cc(NCC2(CO)CCC(Cc3ccccc3)C2)n1 (configuration not stated)	71 µM	75.4 µM	> 96.1 µM	> 100 µM	> 50.7 µM	40.1 µM	> 100 µM	> 93.8 µM	> 90.6 µM	46.6 µM	> 100 µM	> 71.9 µM	> 100 µM	49.8 µM	37.4 µM	> 100 µM	> 80.5 µM	> 100 µM	> 75.7 µM
Cc1cc(N(CCC#N)CCC#N)ccc1/C(N=Nc1cccc([N+](=O)[O-])c1)=N/NC(=O)c1cc(Cl)ccc1O	> 100 µM	26.7 µM	> 100 µM	> 100 µM	94.1 µM	40.2 µM	> 100 µM	76.3 µM	> 100 µM	> 100 µM	> 100 µM	> 100 µM	> 100 µM	> 100 µM	49.3 µM	80.5 µM	72.2 µM	> 100 µM	63.3 µM
COC(=O)CC1(CNC(=O)OCc2ccccc2)OCCO1	> 100 µM	> 100 µM	> 100 µM	> 100 µM	> 100 µM	> 100 µM	> 100 µM	> 100 µM	> 100 µM	> 100 µM	> 100 µM	> 100 µM	> 100 µM	> 100 µM	> 100 µM	> 100 µM	> 100 µM	> 100 µM	> 100 µM
O=C1CCCc2c1c1c(n2Cc2ccccc2)-c2ccccc2C1=O	> 100 µM	> 100 µM	96.6 µM	> 100 µM	32.1 µM	44.9 µM	> 100 µM	99.7 µM	> 100 µM	46.4 µM	88.2 µM	38.1 µM	55.1 µM	47 µM	39.5 µM	34.7 µM	> 100 µM	66.5 µM	43 µM
CC(=O)C1=C(N=[N+]=[N-])c2cccc3cccc(c23)C1=O	64.6 µM	25.6 µM	53.2 µM	55.1 µM	43.8 µM	34.2 µM	54.8 µM	42.8 µM	82.3 µM	26.5 µM	> 100 µM	33.5 µM	–	44.7 µM	30.1 µM	32 µM	28 µM	33.7 µM	31.4 µM
COc1ccc2c3c1OC1C(=O)C=CC4(O)C(C2)NCC[C@@]314 (some centres not stated)	9.17 µM	2.76 µM	12.2 µM	5.81 µM	5.3 µM	12.7 µM	8.84 µM	20.5 µM	11.2 µM	6.61 µM	18.2 µM	2.81 µM	22.7 µM	8.59 µM	5.15 µM	11.3 µM	3.74 µM	5.02 µM	6.65 µM
COC(=O)NCCc1[nH]nc2c1C(=O)C=C(Nc1ccccc1)C2=O	31.2 µM	51.1 µM	> 100 µM	> 100 µM	32.3 µM	34.8 µM	> 100 µM	95.5 µM	> 100 µM	> 100 µM	> 100 µM	25.5 µM	–	62.2 µM	75.8 µM	> 100 µM	> 100 µM	> 100 µM	99.4 µM
NNC(=O)c1c(Cl)c(Cl)c(Cl)c(Cl)c1-c1nc2ccccc2[nH]1	23 µM	54.2 µM	> 100 µM	67.6 µM	28.1 µM	24.7 µM	> 100 µM	43.9 µM	59.2 µM	23.6 µM	45.7 µM	37.9 µM	53.4 µM	29.1 µM	30.3 µM	40.9 µM	21.9 µM	55.8 µM	29.4 µM
